In US11667602B2, “Compounds and their use” (AstraZeneca AB, priority 2020, dated 2023):
Converted amounts (≈) assume the structure as drawn.

How the values were obtained:
[1] = Human Plasma Protein Binding (Test B); type: in vitro ADME; conditions: fraction unbound (fu)
Summary of the method: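 Human plasma protein binding run per the published Wernevik et al. (2020) integrated DMPK panel protocol. Values are fraction unbound (fu, % free); repeat runs averaged arithmetically.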

[2] = Rat Hepatocyte Stability (Test E); type: in vitro ADME; conditions: rat, hepatocytes, geometric mean if run multiple times
Summary of the method: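 Run per the published AstraZeneca-type rat hepatocyte stability protocol (Wernevik et al. panel). Values are mean intrinsic clearance, Clint in μl/min/10^6 cells; geometric mean used for repeated runs.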

[3] = Human Liver Microsomal Stability (Test C); type: in vitro ADME; conditions: human, liver microsomes
Summary of the method: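 Human liver microsome incubation per the Wernevik et al. integrated DMPK panel protocol. Intrinsic clearance reported as CLint in μl/min/mg protein, averaged arithmetically over repeat runs.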

Solubility (Test F) = type: physicochemical; conditions: arithmetic mean if run multiple times
Description: The assay was conducted according to the Solubility Assay described in pages 164-167 of Wernevik, J. et al., “A Fully Integrated Assay Panel for Early Drug Metabolism and Pharmacokinetics Profiling”, Assay and Drug Development Technologies, 2020, 18(4), 157-179. Data are reported in Table 36 as solubility ([…]. Where the assay was run multiple times for the same compound, the arithmetic mean is reported.

human RXFP1 = target: T1, human RXFP1 (Homo sapiens, UniProt Q9HBX9); experiment: RXFP1 Hu cAMP (Test A); type: cell-based; set-up: expressed in transfected cells; host or cells: Jump-In T-REx CHO-K1 cells (ThermoFisher), induced with 10 ng/ml doxycycline for 24 h; conditions: RXFP1 Hu cAMP; for EC50: read-out: Test A EC50
T1 sequence (Q9HBX9 1-757): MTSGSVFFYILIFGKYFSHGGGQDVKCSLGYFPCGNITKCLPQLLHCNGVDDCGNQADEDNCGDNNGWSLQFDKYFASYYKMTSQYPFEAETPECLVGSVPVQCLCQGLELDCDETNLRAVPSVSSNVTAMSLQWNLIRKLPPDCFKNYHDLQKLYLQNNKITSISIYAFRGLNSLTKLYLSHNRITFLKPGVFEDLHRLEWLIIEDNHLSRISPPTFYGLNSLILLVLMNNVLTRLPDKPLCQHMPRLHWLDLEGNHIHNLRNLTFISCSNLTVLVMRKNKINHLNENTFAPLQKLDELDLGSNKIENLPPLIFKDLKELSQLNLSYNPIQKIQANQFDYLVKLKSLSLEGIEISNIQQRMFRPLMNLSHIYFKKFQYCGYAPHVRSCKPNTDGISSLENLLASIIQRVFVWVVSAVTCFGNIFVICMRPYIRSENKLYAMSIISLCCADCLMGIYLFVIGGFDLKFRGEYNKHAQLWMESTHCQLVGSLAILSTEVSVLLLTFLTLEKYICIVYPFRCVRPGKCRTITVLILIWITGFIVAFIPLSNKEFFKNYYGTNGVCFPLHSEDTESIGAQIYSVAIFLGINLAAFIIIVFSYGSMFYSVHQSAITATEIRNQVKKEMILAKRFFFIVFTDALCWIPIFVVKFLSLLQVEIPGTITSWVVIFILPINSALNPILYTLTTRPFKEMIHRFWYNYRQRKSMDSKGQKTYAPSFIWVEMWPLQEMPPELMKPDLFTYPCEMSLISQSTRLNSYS
Summary of the method: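 Doxycycline-induced (10 ng/ml, 24 h) CHO-K1 cells stably expressing human RXFP1; cAMP read by competitive HTRF after 2 h at room temperature, with 0.5 mM IBMX final.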

Compound	Test B Human Plasma Protein Binding (% free) [1] [% free]	hepatocyte CLint [2] [µL/min/1e6 cells]	microsomal CLint [3] [µL/min/mg]	solubility (Solubility (Test F)) [µM]	Test A Sinf (human RXFP1) [%]	EC50 (human RXFP1) [nM]
COc1cc(F)c(O[C@H]2CC[C@@H](C(=O)O)CC2)cc1C(=O)N[C@@H]1[C@H]2CC[C@H](C2)[C@@H]1C(=O)Nc1cc(C(F)(F)F)ccn1 [Example 14, (1S,4s)-4-(2-Fluoro-4-methoxy-5-(((1S,2R,3S,4R)-3-((4-(trifluoromethyl)pyridin-2-yl)carbamoyl)bicyclo[2.2.1]heptan-2-yl)carbamoyl)phenoxy)cyclohexane-1-carboxylic acid]	1.8	27	18	770 (≈ 457 µg/mL)	83	510
COc1cc(C#N)c(O[C@H]2C[C@]3(C2)C[C@H](C(=O)O)C3)cc1C(=O)N[C@@H]1[C@H]2CC[C@H](C2)[C@@H]1C(=O)NCC1(C)CCC1 (single isomer, unassigned) [Example 7, (2R*,4r,6R)-6-(2-Cyano-4-methoxy-5-(((1S,2R,3S,4R)-3-(((1-methylcyclobutyl)methyl)carbamoyl)bicyclo[2.2.1]heptan-2-yl)carbamoyl)phenoxy)spiro[3.3]heptane-2-carboxylic acid]	4.4	23	23	820 (≈ 451 µg/mL)	86	1300
COc1cc(F)c(O[C@H]2CC[C@@H](C(=O)O)CC2)cc1C(=O)N[C@@H]1[C@H]2CC[C@H](C2)[C@@H]1C(=O)Nc1ccc(S(F)(F)(F)(F)F)cc1 [Example 183]	0.50	13	23	50 (≈ 32.5 µg/mL)	99	420
COc1cc(F)c(-c2ccc(CCC(=O)O)cc2)cc1C(=O)N[C@H]1[C@@H](C(=O)Nc2cccc(S(=O)(=O)C(F)(F)F)c2)[C@@H]2C=C[C@H]1C2 (racemic) [Example 283]	<0.29	15	12	220 (≈ 145 µg/mL)	87	220
COc1cc(C#N)c(O[C@H]2CC[C@@](C)(C(=O)O)CC2)cc1C(=O)N[C@@H]1[C@H]2CC[C@H](C2)[C@@H]1C(=O)NCC1(CO)CCCC1 [Example 109]	17	26	11	810 (≈ 471 µg/mL)	103	250
COc1cc(F)c(O[C@H]2CC[C@@H](C(=O)O)CC2)cc1C(=O)N[C@@H]1[C@H]2CC[C@H](C2)[C@@H]1C(=O)Nc1cccc(OC(F)(F)F)c1 [Example 20]	0.74	63	28	980 (≈ 596 µg/mL)	102	48
COc1ccc(O[C@H]2CC[C@@H](C(=O)O)CC2)cc1C(=O)N[C@@H]1[C@H]2CC[C@H](C2)[C@@H]1C(=O)Nc1cccc(S(=O)(=O)C(F)(F)F)c1 [Example 466, (1S,4s)-4-(4-Methoxy-3-(((1S,2R,3S,4R)-3-((3-((trifluoromethyl)sulfonyl)phenyl)carbamoyl)bicyclo[2.2.1]heptan-2-yl)carbamoyl)phenoxy)cyclohexane-1-carboxylic acid]	2.1	29	37	> 1000	106	93
COc1cc(C#N)c(O[C@H]2CC[C@@](C)(C(=O)O)CC2)cc1C(=O)N[C@@H]1[C@H]2CC[C@H](C2)[C@@H]1C(=O)NCC1C(C)(C)C1(C)C [Example 84]	4	19	160	340 (≈ 197 µg/mL)	112	15
COc1cc(C#N)c(O[C@H]2CC[C@@](C)(C(=O)O)CC2)cc1C(=O)N[C@@H]1[C@H]2CC[C@H](C2)[C@@H]1C(=O)NCC(C)(C)O [Example 76]	47	12	< 3	790 (≈ 428 µg/mL)	100	41000
COc1cc(F)c(-c2cccc(CC(=O)O)c2)cc1C(=O)N[C@@H]1CCC[C@@H]1C(=O)Nc1cccc(S(=O)(=O)C(F)(F)F)c1 [Example 318]	0.55	37	13	710 (≈ 442 µg/mL)	89	600
COc1cc(F)c(O[C@H]2CC[C@@H](C(=O)O)CC2)cc1C(=O)N[C@@H]1[C@H]2CC[C@H](C2)[C@@H]1C(=O)Nc1cc(Cl)cnn1 [Example 30, (1S,4s)-4-(5-(((1S,2R,3S,4R)-3-((5-Chloropyridazin-3-yl)carbamoyl)bicyclo[2.2.1]heptan-2-yl)carbamoyl)-2-fluoro-4-methoxyphenoxy)cyclohexane-1-carboxylic acid]	3.6	18	< 3	> 1000	–	> 40000
COc1cc(F)c(-c2cccc(CCC(=O)O)c2)cc1C(=O)N[C@H]1[C@@H](C(=O)Nc2cccc(S(=O)(=O)C(F)(F)F)c2)[C@@H]2C=C[C@H]1C2 (racemic) [Example 282]	<0.25	12	6.2	48 (≈ 31.7 µg/mL)	105	490

The next lines start with the values.

Test B Human Plasma Protein Binding (% free) [1] [% free]	hepatocyte CLint [2] [µL/min/1e6 cells]	microsomal CLint [3] [µL/min/mg]	solubility (Solubility (Test F)) [µM]	Test A Sinf (human RXFP1) [%]	EC50 (human RXFP1) [nM]	Compound
0.50	55	8.5	170 (≈ 99.4 µg/mL)	112	58	COc1cc(F)c(O[C@H]2CC[C@@](C)(C(=O)O)CC2)cc1C(=O)N[C@@H]1CC[C@@H]1C(=O)Nc1ccc(F)c(C(F)(F)F)c1 [Example 51, (1S,4s)-4-(2-Fluoro-5-(((1R,2S)-2-((4-fluoro-3-(trifluoromethyl)phenyl)carbamoyl)cyclobutyl)carbamoyl)-4-methoxyphenoxy)-1-methylcyclohexane-1-carboxylic acid]
1.1	13	16	2.8 (≈ 1.57 µg/mL)	108	490	COc1cc(F)c(O[C@H]2CC[C@@](C)(C(=O)O)CC2)cc1C(=O)Nc1cccc(Cl)c1C(=O)NCC1(C)CCC1 [Example 54, (1s,4s)-4-(5-((3-Chloro-2-(((1-methylcyclobutyl)methyl)carbamoyl)phenyl)carbamoyl)-2-fluoro-4-methoxyphenoxy)-1-methylcyclohexane-1-carboxylic acid]
1.6	25	130	250 (≈ 145 µg/mL)	111	17	CCCC1(CNC(=O)[C@H]2[C@@H]3CC[C@@H](C3)[C@H]2NC(=O)c2cc(O[C@H]3CC[C@@](C)(C(=O)O)CC3)c(C#N)cc2OC)CCC1 [Example 83]
<2.7	17	6.5	4 (≈ 2.22 µg/mL)	134	310	COc1cc(F)c(O[C@H]2CC[C@@](C)(C(=O)O)CC2)cc1C(=O)Nc1cc(C)c(C)cc1C(=O)NCC1(C)CCC1 [Example 212, (1s,4s)-4-(5-((4,5-Dimethyl-2-(((1-methylcyclobutyl)methyl)carbamoyl)phenyl)carbamoyl)-2-fluoro-4-methoxyphenoxy)-1-methylcyclohexane-1-carboxylic acid]
8	21	8.9	820 (≈ 435 µg/mL)	114	> 5500	COc1cc(F)c(O[C@H]2CC[C@@](C)(C(=O)O)CC2)cc1C(=O)N[C@@H]1[C@H]2CC[C@H](C2)[C@@H]1C(=O)NCC1(C)CC1 [Example 41]
